According to patent US20140323488A1, “DISUBSTITUTED TRIAZINE DIMERS FOR TREATMENT AND/OR PREVENTION OF INFECTIOUS DISEASES” (Universiteit Antwerpen, priority 2011, published 2014):

Columns and labels:
Type in all cases: cell-based
[1] = test system: Trypanosoma b. brucei Squib 427; experiment: In vitro anti-Trypanosoma brucei brucei activity; conditions: read-out: T. bruc. IC50
Protocol: In Vitro Anti-Trypanosoma brucei brucei Activity:
After incubation in a humidified atmosphere (37° C., 5% CO2) for 72 h, resazurin was added for another 24 h and parasite growth was assessed fluorimetrically (λex 550 nm, λem 590 nm). […] Suramin was included as reference drug.

[2] = test system: T. rhodesiense (strain STIB-900); experiment: In vitro anti-Trypanosoma brucei rhodesiense activity; conditions: read-out: T. rhod. IC50
Protocol: In Vitro Anti-Trypanosoma brucei rhodesiense Activity
T. rhodesiense (strain STIB-900) was maintained in HMI-9-medium, supplemented with 10% heat-inactivated FBS. Assays were performed in 96-well microtiter plates, each well containing 10 μL of the extract dilution together with 190 μL of the parasite suspension (2×10^4 parasites/mL). After incubation in a humidified atmosphere (37° C., 5% CO2) for 72 h, resazurin was added for another 6 h and parasite growth was assessed fluorimetrically (λex 550 nm, λem 590 nm). […] Suramin was included as reference drug.

[3] = target: Trypanosoma cruzi, Tulahuen CL2, β galactosidase strain; experiment: In vitro anti-Trypanosoma cruzi activity; conditions: read-out: T. cruz. IC50
Protocol: In Vitro Anti-Trypanosoma cruzi Activity
All cultures and assays were conducted under a humidified atmosphere (37° C., 5% CO2). […] The change in color was measured spectrophotometrically at 540 nm after 4 h at 37° C. […] Benznidazole was included as reference drug.

[4] = test system: Leishmania infantum MHOM/MA (BE)/67; experiment: In vitro anti-Leishmania infantum activity; conditions: read-out: L. inf. IC50
Protocol: In Vitro Anti-Leishmania infantum Activity
Leishmania infantum MHOM/MA (BE)/67 was maintained in the golden hamster and spleen amastigotes were collected for preparing infection inocula. Primary peritoneal mouse macrophages were used as host cells and collected 48 h after peritoneal stimulation with a 2% potato starch suspension. […] After incubation for 120 h in a humidified atmosphere (37° C., 5% CO2), total parasite burdens were microscopically assessed after Giemsa staining. The results were expressed as % reduction in parasite burden compared to untreated control wells and IC50 values were calculated. The extracts were tested using five fourfold dilutions starting with 64 μg/mL.

P. falciparum = experiment: In vitro anti-Plasmodium falciparum activity; conditions: read-out: Pf-K1 IC50
Protocol: In Vitro Anti-Plasmodium falciparum Activity
All cultures and assays were conducted under a humidified atmosphere (37° C., 4% CO2, 3% O2 and 93% N2) with the assay being an adaptation of the procedure described by Desjardins et al. (12). Assays were performed in 96-well microtiter plates, each well containing 10 μL of the watery extract dilutions together with 190 μL of the malaria parasite inoculum (1% parasitemia, 2% hematocrit). After incubation for 72 h at 37° C., the plates were frozen and stored at −20° C. Upon thawing, 20 μL of each well was transferred into another plate together with 100 μL Malstat® reagent and 20 μL of a 1/1 mixture of PES (phenazine ethosulphate, 2 mg/mL) and NBT (Nitro Blue Tetrazolium Grade III, 0.1 mg/ml). […] The results were expressed as % reduction in parasitemia compared to control wells. The extracts were tested using five 4-fold dilutions starting with 64 μg/mL. Chloroquine was included as reference drug.

[5] = test system: Human lung fibroblast MRC-5SV2 cells; experiment: Cytotoxicity assay on MRC-5SV2 cells (resazurin)
Protocol: Assays were performed in 96-well microtiter plates, each well containing 1×10^4 cells. […] After incubation for 72 h in a humidified atmosphere (37° C., 5% CO2) and addition of resazurin, the cell viability was assessed fluorimetrically (λex 550 nm, λem 590 nm). The results were expressed as % reduction in cell growth/viability compared to untreated control wells and IC50 values were determined. Tamoxifen was included as reference drug.

HIV-1 BaL = experiment: TZM-bl assay, anti-HIV-1 activity; conditions: read-out: EC50 (50% effective concentration), anti-HIV-1 activity; TZM-bl cells
Protocol: The JC53-BL cell line, also known as the TZM-bl cell line (NIH AIDS Research and Reference Reagent Program, Germantown, USA), was used for the evaluation of anti-HIV activity. […] The resulting cell suspension was washed with an equivalent amount of TZM-bl medium and subsequently seeded in a T75 culture flask (Greiner Bio-One, Germany) at 10^6 cells in 20 mL medium.
The antiviral activity of the newly designed compounds was measured by pre-incubating ten thousand TZM-bl cells (at 10^5 cells/mL in culture medium supplemented with 30 μg/mL DEAE dextran) in a 96-well plate for 30 minutes at 37° C., 5% CO2 in the presence or absence of serial dilutions of the respective compound. Subsequently, 200 TCID50 of HIV-1 BaL was added to each well and cultures were incubated for 48 hours before quantifying luciferase activity, using a TriStar LB941 luminometer (Berthold Technologies GmbH & Co. KG, Bad Wildbad, Germany). Each condition was evaluated in triplicate wells and in at least two independent experiments. The antiviral activity of the compound was expressed as the percentage of viral inhibition compared to the untreated controls and subsequently plotted against the compound concentration.

TZM-bl cells = experiment: WST-1 cytotoxicity assay; conditions: read-out: CC50 (50% cytotoxic concentration)
Text: The Water Soluble Tetrazolium-1 (WST-1) Cell Proliferation Assay is a colorimetric assay for the measurement of cell proliferation and viability. The assay is based on the cleavage of the tetrazolium salt WST-1 (4-[3-(4-iodophenyl)-2-(4-nitrophenyl)-2H-5-tetrazolio]-1,3-benzene disulfonate) to a formazan dye by a complex cellular mechanism. This bioreduction is largely dependent on the glycolytic production of NAD(P)H in viable cells. Therefore, the amount of formazan dye formed correlates directly to the number of viable cells in the culture, and can be quantified by measuring the absorbance at 450 nm in a multiwell plate reader. The greater the number of viable cells, the greater the amount of formazan dye produced following the addition of WST-1. Cytotoxicity of each compound was evaluated using this WST-1 viability assay, according to the manufacturer's instructions (Roche, Vilvoorde, Belgium).
Briefly, ten thousand TZM-bl cells were seeded in a 96-well plate and cultured for 2 days in the presence of a serial dilution of compound. After this 48 h exposure, Cell Proliferation Reagent, WST-1, was added and absorbance at 450 nm was quantified after 90 min using a microplate reader (BioRad, Tokio, Japan). Each compound was tested in three replicate wells and in at least two independent experiments.

SMILES: Cc1cc(C)c(Nc2nc(Nc3ccc(C#N)cc3)nc(Nc3ccc(Nc4nc(Nc5ccc(C#N)cc5)nc(Nc5c(C)cc(C)cc5C)n4)cc3)n2)c(C)c1 [T12, 4,4′-((6,6′-(1,4-phenylenebis(azanediyl))bis(4-(mesitylamino)-1,3,5-triazine-6,2-diyl))bis(azanediyl))dibenzonitrile]
- IC50 [1]: 530 nM
- IC50 [2]: 20 nM
- IC50 [3]: > 64000 nM
- IC50 [4]: > 64000 nM
- IC50 (P. falciparum): > 64000 nM
- cytotoxicity in comparison with monomer I5 [5]: no cytotoxicity
- IC50 ([5]; human cell line MRC5): > 64000 nM
- EC50 (HIV-1 BaL): 167 nM
- CC50 (TZM-bl cells): > 100000 nM
